# Values quoted from earlier work in PubChem BioAssay AID1259409 (Chemical Carcinogenesis Research Information System (CCRIS), 2018).
# Test system: rodent chemically induced tumor inhibition, incidence and multiplicity
# Assay: CCRIS tumor inhibitor studies
# Conditions: Route [Inhibitor]: ORAL, Promoter: NONE USED
structure (smiles),measurement,setting,value
CCNC(=O)/C=C(C)/C=C/C=C(C)/C=C/C1=C(C)CCCC1(C)C,"tumour outcome (control, treated, inhibition, significance)","Carcinogen: N-METHYL-N-NITROSOUREA, 684-93-5, Dose [Inhibitor]: 2 MMOL/KG DIET DAILY STARTING 12 D AFTER CARCINOGEN TREATMENT THROUGH ABOUT 8 MO AFTER CARCINOGEN DOSE (STUDY DURATION:, Species: RAT, Strain/Sex: F344/MALE, Target Tissue: Type of Lesion: COLON: ADENOMA, Dose [Carcinogen]: 2.5 MG 1/WK FOR 2 WK","16/39 (41%), 10/30 (33%), 20%, not significant"
same,"tumour outcome (control, treated, inhibition, significance)","Carcinogen: N-METHYL-N-NITROSOUREA, 684-93-5, Dose [Inhibitor]: 327 MG/KG DIET DAILY STARTING 1 WK AFTER LAST CARCINOGEN TREATMENT AND CONTINUING FOR 6 MO (STUDY DURATION: 9 MO), Species: HAMSTER, Strain/Sex: SYRIAN/MALE, Target Tissue: Type of Lesion: TRACHEA: BENIGN EPITHELIAL NEOPLASM, Dose [Carcinogen]: 0.5% IN 1 ML PHOSPHATE-BUFFERED SALINE 1/WK FOR 12 WK","6/63 (10%), 12/63 (19%), -90%, not significant"
same,"tumour outcome (control, treated, inhibition, significance)","Carcinogen: N-METHYL-N-NITROSOUREA, 684-93-5, Dose [Inhibitor]: 327 MG/KG DIET DAILY STARTING 1 WK AFTER LAST CARCINOGEN TREATMENT AND CONTINUING FOR 6 MO (STUDY DURATION: 9 MO), Species: HAMSTER, Strain/Sex: SYRIAN/MALE, Target Tissue: Type of Lesion: TRACHEA: CARCINOMA, Dose [Carcinogen]: 0.5% IN 1 ML PHOSPHATE-BUFFERED SALINE 1/WK FOR 12 WK","4/63 (6%), 12/63 (19%), -217%, p<0.05"
same,"tumour outcome (control, treated, inhibition, significance)","Carcinogen: N-METHYL-N-NITROSOUREA, 684-93-5, Dose [Inhibitor]: 327 MG/KG DIET DAILY STARTING 1 WK AFTER LAST CARCINOGEN TREATMENT AND CONTINUING FOR 6 MO (STUDY DURATION: 9 MO), Species: HAMSTER, Strain/Sex: SYRIAN/MALE, Target Tissue: Type of Lesion: TRACHEA: EPITHELIAL NEOPLASM, Dose [Carcinogen]: 0.5% IN 1 ML PHOSPHATE-BUFFERED SALINE 1/WK FOR 12 WK","10/63 (16%), 24/63 (38%), -138%, p<0.01"
same,"tumour outcome (control, treated, inhibition, significance)","Carcinogen: N-METHYL-N-NITROSOUREA, 684-93-5, Dose [Inhibitor]: 327 MG/KG IN DIET DAILY FOR 6 MO STARTING 1 WK AFTER FINAL CARCINOGEN DOSE (STUDY DURATION: 9 MO), Species: HAMSTER, Strain/Sex: SYRIAN/MALE, Target Tissue: Type of Lesion: TRACHEA: BENIGN EPITHELIAL NEOPLASM, Dose [Carcinogen]: 0.5% SOLUTION FOR 5 SECOND EXPOSURE 1/WK FOR 12 WK","6/63 (10%), 12/63 (19%), -90%, not significant"
same,"tumour outcome (control, treated, inhibition, significance)","Carcinogen: N-METHYL-N-NITROSOUREA, 684-93-5, Dose [Inhibitor]: 327 MG/KG IN DIET DAILY FOR 6 MO STARTING 1 WK AFTER FINAL CARCINOGEN DOSE (STUDY DURATION: 9 MO), Species: HAMSTER, Strain/Sex: SYRIAN/MALE, Target Tissue: Type of Lesion: TRACHEA: CARCINOMA, Dose [Carcinogen]: 0.5% SOLUTION FOR 5 SECOND EXPOSURE 1/WK FOR 12 WK","4/63 (6%), 12/63 (19%), -216%, p<0.05"
same,"tumour outcome (control, treated, inhibition, significance)","Carcinogen: N-METHYL-N-NITROSOUREA, 684-93-5, Dose [Inhibitor]: 327 MG/KG IN DIET DAILY FOR 6 MO STARTING 1 WK AFTER FINAL CARCINOGEN DOSE (STUDY DURATION: 9 MO), Species: HAMSTER, Strain/Sex: SYRIAN/MALE, Target Tissue: Type of Lesion: TRACHEA: EPITHELIAL NEOPLASM, Dose [Carcinogen]: 0.5% SOLUTION FOR 5 SECOND EXPOSURE 1/WK FOR 12 WK","10/63 (16%), 24/63 (38%), -138%, p<0.01"
same,"tumour outcome (control, treated, inhibition, significance)","Carcinogen: N-METHYL-N-NITROSOUREA, 684-93-5, Dose [Inhibitor]: 654 MG/KG DIET DAILY FOR 24 WK STARTING 5 D AFTER LAST DOSE OF CARCINOGEN (STUDY DURATION: 32 WK), Species: RAT, Strain/Sex: F344/MALE, Target Tissue: Type of Lesion: COLON: SARCOMA, Dose [Carcinogen]: 0.5 MG 2/WK FOR 8 WK","5/40 (13%), 1/40 (3%), 77%, not calculated"
same,"tumour outcome (control, treated, inhibition, significance)","Carcinogen: N-METHYL-N-NITROSOUREA, 684-93-5, Dose [Inhibitor]: 654 MG/KG DIET DAILY FOR 24 WK STARTING 5 D AFTER LAST DOSE OF CARCINOGEN (STUDY DURATION: 32 WK), Species: RAT, Strain/Sex: F344/MALE, Target Tissue: Type of Lesion: COLON: TUMOR, Dose [Carcinogen]: 0.5 MG 2/WK FOR 8 WK","60%, 65%, -8%, not significant"
same,"tumour outcome (control, treated, inhibition, significance)","Carcinogen: N-METHYL-N-NITROSOUREA, 684-93-5, Dose [Inhibitor]: 654 MG/KG DIET DAILY FOR 38 WK STARTING 5 D AFTER LAST DOSE OF CARCINOGEN (STUDY DURATION: 44 WK), Species: RAT, Strain/Sex: F344/MALE, Target Tissue: Type of Lesion: COLON: TUMOR, Dose [Carcinogen]: 0.5 MG 2/WK FOR 6 WK","62%, 62%, 0%, not significant"
same,"tumour outcome (control, treated, inhibition, significance)","Carcinogen: N-METHYL-N-NITROSOUREA, 684-93-5, Dose [Inhibitor]: 654 MG/KG DIET DAILY FOR 48 WK STARTING 5 D AFTER LAST DOSE OF CARCINOGEN (STUDY DURATION: 52 WK), Species: RAT, Strain/Sex: F344/MALE, Target Tissue: Type of Lesion: COLON: TUMOR, Dose [Carcinogen]: 0.5 MG 2/WK FOR 4 WK","31%, 30%, 3%, not significant"
same,"tumour outcome (control, treated, inhibition, significance)","Carcinogen: N-NITROBIS(2-OXOPROPYL)AMINE, 60559-38-4, Dose [Inhibitor]: 0.5 OR 1.0 MMOL/KG DIET DAILY STARTING 1 WK AFTER CARCINOGEN TREATMENT AND CONTINUING THROUGH THE END OF THE STUDY (STUD, Species: HAMSTER, Strain/Sex: SYRIAN/FEMALE, Target Tissue: Type of Lesion: LIVER: BENIGN TUMOR, Dose [Carcinogen]: 40 MG/KG BW ONCE","4/20 (20%), 17/37 (46%), -130%, not significant"
same,"tumour outcome (control, treated, inhibition, significance)","Carcinogen: N-NITROBIS(2-OXOPROPYL)AMINE, 60559-38-4, Dose [Inhibitor]: 0.5 OR 1.0 MMOL/KG DIET DAILY STARTING 1 WK AFTER CARCINOGEN TREATMENT AND CONTINUING THROUGH THE END OF THE STUDY (STUD, Species: HAMSTER, Strain/Sex: SYRIAN/FEMALE, Target Tissue: Type of Lesion: ND: TOTAL TUMOR, Dose [Carcinogen]: 40 MG/KG BW ONCE","17/20 (85%), 32/37 (86%), 1%, not significant"
same,"tumour outcome (control, treated, inhibition, significance)","Carcinogen: N-NITROBIS(2-OXOPROPYL)AMINE, 60559-38-4, Dose [Inhibitor]: 0.5 OR 1.0 MMOL/KG DIET DAILY STARTING 1 WK AFTER CARCINOGEN TREATMENT AND CONTINUING THROUGH THE END OF THE STUDY (STUD, Species: HAMSTER, Strain/Sex: SYRIAN/FEMALE, Target Tissue: Type of Lesion: PANCREAS: DUCTULAR ADENOMA, Dose [Carcinogen]: 10 MG/KG BW ONCE","5/23 (23%), 13/25 (52%), -126%, not significant"
same,"tumour outcome (control, treated, inhibition, significance)","Carcinogen: N-NITROBIS(2-OXOPROPYL)AMINE, 60559-38-4, Dose [Inhibitor]: 0.5 OR 1.0 MMOL/KG DIET DAILY STARTING 1 WK AFTER CARCINOGEN TREATMENT AND CONTINUING THROUGH THE END OF THE STUDY (STUD, Species: HAMSTER, Strain/Sex: SYRIAN/FEMALE, Target Tissue: Type of Lesion: PANCREAS: DUCTULAR ADENOMA, Dose [Carcinogen]: 40 MG/KG BW ONCE","12/20 (60%), 27/37 (73%), -22%, not significant"
same,"tumour outcome (control, treated, inhibition, significance)","Carcinogen: N-NITROBIS(2-OXOPROPYL)AMINE, 60559-38-4, Dose [Inhibitor]: 0.5 OR 1.0 MMOL/KG DIET DAILY STARTING 1 WK AFTER CARCINOGEN TREATMENT AND CONTINUING THROUGH THE END OF THE STUDY (STUD, Species: HAMSTER, Strain/Sex: SYRIAN/FEMALE, Target Tissue: Type of Lesion: PANCREAS: DUCTULAR CARCINOMA, Dose [Carcinogen]: 10 MG/KG BW ONCE","6/23 (27%), 6/25 (24%), 11%, not significant"
same,"tumour outcome (control, treated, inhibition, significance)","Carcinogen: N-NITROBIS(2-OXOPROPYL)AMINE, 60559-38-4, Dose [Inhibitor]: 0.5 OR 1.0 MMOL/KG DIET DAILY STARTING 1 WK AFTER CARCINOGEN TREATMENT AND CONTINUING THROUGH THE END OF THE STUDY (STUD, Species: HAMSTER, Strain/Sex: SYRIAN/MALE, Target Tissue: Type of Lesion: LIVER: BENIGN TUMOR, Dose [Carcinogen]: 40 MG/KG BW ONCE","5/24 (21%), 25/41 (62%), -195%, p<0.05"
same,"tumour outcome (control, treated, inhibition, significance)","Carcinogen: N-NITROBIS(2-OXOPROPYL)AMINE, 60559-38-4, Dose [Inhibitor]: 0.5 OR 1.0 MMOL/KG DIET DAILY STARTING 1 WK AFTER CARCINOGEN TREATMENT AND CONTINUING THROUGH THE END OF THE STUDY (STUD, Species: HAMSTER, Strain/Sex: SYRIAN/MALE, Target Tissue: Type of Lesion: ND: TOTAL TUMOR, Dose [Carcinogen]: 10 MG/KG BW ONCE","12/22 (54%), 24/31 (77%), -43%, not significant"
